# Data: paper PMC9866728, “Dosing Methods to Enable Cell-Based In Vitro Testing of Complex Substances: A Case Study with a PAH Mixture” (Toxics, 2022)
# Where “and” joins values, the source holds several entries; their conditions need not be identical. Equal entries are not always repeated. Where two headings read alike, the source gives them in different places.
# Tests used:
# [1] = O-ring loading rate constant, larger O-rings; ref Smith et al. 2010 [24]; cited from earlier work
# [2] = Recovery over time from exposure to cell culture media without cells (GC-MS/MS); type: physicochemical
# [3] = Loading kinetics of silicone micro-O-rings from methanol PAH solution (GC-MS/MS); type: physicochemical; details: for K Value: loading rate constant, one-phase association (h^-1); for K Value / Plateau Value / Y0: 10 µg/mL PAH mix in methanol; for Plateau Value: one-phase association fit of nominal Csilicone (µg/mL per Eq 1); for Y0: one-phase association fit of nominal Csilicone, 0-24 h; for Half-time Value / Span Value / Tau Value: one-phase association fit, micro-O-ring absorption
# [4] = Smith et al. O-Rings; ref Smith et al. 2010 [24]; cited from earlier work
# [5] = Table S1; ref PubChem; cited from earlier work
# [6] = bovine, 24 h
# [7] = Protein binding: media-dissolved fraction (FMD) and unbound fraction (FUB) in cell culture media without cells (ultracentrifugation, GC-MS/MS)
# [8] = MAF (400 ng/mL each PAH), one phase decay fit of nominal recovery
# [9] = MAF (400 ng/mL each PAH), one phase decay fit of nominal recovery (text: ng/mL)
# [10] = O-Rings (loaded in 10 µg/mL PAH solution), one phase association fit of nominal recovery
# [11] = O-Rings, one phase association fit
# [12] = O-Rings, one phase association fit (desorption into media)
# [13] = Solvent Extract (DMSO, 15 ng/mL each PAH), one phase decay fit of nominal recovery
# [14] = Solvent Extract (DMSO, 15 ng/mL each PAH), one phase decay fit of nominal recovery (text: ng/mL)
# [15] = Solvent Extract, one phase decay fit
compound,measurement,setting,value
c1ccc2c(c1)cc1ccc3cccc4ccc2c1c34 [Benzo[a]pyrene],Smith et al. 2010 K Value,[1],1.32
same,Y0,[2]; [8],391.4
same,Plateau,[2]; [9],203.9
same,K,"[2]; MAF, one phase decay fit",0.5026
same,Span,"[2]; MAF, one phase decay fit",187.5
same,Tau,"[2]; MAF, one phase decay fit",1.989
same,Plateau,[2]; [10],1.337
same,Y0,[2]; [10],0.02292
same,Half-time,[2]; [11],1.658
same,Span,[2]; [11],1.314
same,Tau,[2]; [11],2.392
same,K,[2]; [12],0.418
same,Y0,[2]; [13],15.28
same,Plateau,[2]; [14],6.176
same,K,[2]; [15],0.1275
same,Span,[2]; [15],9.105
same,Tau,[2]; [15],7.845
same,K Value,[3],33.8629
same,Plateau Value,[3],0.1047
same,Y0,[3],0
same,Half-time Value,[3],0.02047
same,Span Value,[3],0.1047
same,Tau Value,[3],0.02953
same,K,[4],0.57
same,LogKow (PubChem),[5],6.13
c1ccc2c(c1)Cc1ccccc1-2 [Fluorene],Smith et al. 2010 K Value,[1],1.89
same,Y0,[2]; [8],397.4
same,Plateau,[2]; [9],50.15
same,K,"[2]; MAF, one phase decay fit",0.7944
same,Span,"[2]; MAF, one phase decay fit",347.3
same,Tau,"[2]; MAF, one phase decay fit",1.259
same,Plateau,[2]; [10],2.925
same,Y0,[2]; [10],-0.4812
same,Half-time,[2]; [11],0.4551
same,Span,[2]; [11],3.406
same,Tau,[2]; [11],0.6566
same,K,[2]; [12],1.523
same,Y0,[2]; [13],14.61
same,Plateau,[2]; [14],3.728
same,K,[2]; [15],0.435
same,Span,[2]; [15],10.88
same,Tau,[2]; [15],2.299
same,K Value,[3],26.7516
same,Plateau Value,[3],0.7821
same,Y0,[3],0
same,Half-time Value,[3],0.02591
same,Span Value,[3],0.7821
same,Tau Value,[3],0.03738
same,LogKow (PubChem),[5],4.18
same,ISTD Resp. Ratio (Raw Data for FMD),[6]; 0.375 µg/mL,0.7014
same,ISTD Resp. Ratio (Raw Data for FMD),[6]; 10 µg/mL,0.2015
c1ccc2cc3ccccc3cc2c1 [Anthracene],Smith et al. 2010 K Value,[1],1.82
same,Y0,[2]; [8],398.5
same,Plateau,[2]; [9],49.04
same,K,"[2]; MAF, one phase decay fit",0.9206
same,Span,"[2]; MAF, one phase decay fit",349.4
same,Tau,"[2]; MAF, one phase decay fit",1.086
same,Plateau,[2]; [10],0.3725
same,Y0,[2]; [10],-0.1844
same,Half-time,[2]; [11],0.1723
same,Span,[2]; [11],0.5569
same,Tau,[2]; [11],0.2486
same,K,[2]; [12],4.022
same,Y0,[2]; [13],14.66
same,Plateau,[2]; [14],2.703
same,K,[2]; [15],0.5624
same,Span,[2]; [15],11.96
same,Tau,[2]; [15],1.778
same,K Value,[3],27.2512
same,Plateau Value,[3],0.255
same,Y0,[3],0
same,Half-time Value,[3],0.02544
same,Span Value,[3],0.255
same,Tau Value,[3],0.0367
same,K,[4],2.3
same,LogKow (PubChem),[5],4.45
c1ccc2c(c1)-c1cccc3cccc-2c13 [Fluoranthene],Smith et al. 2010 K Value,[1],1.41
same,Y0,[2]; [8],391.9
same,Plateau,[2]; [9],86.09
same,K,"[2]; MAF, one phase decay fit",0.2998
same,Span,"[2]; MAF, one phase decay fit",305.9
same,Tau,"[2]; MAF, one phase decay fit",3.336
same,Plateau,[2]; [10],0.9705
same,Y0,[2]; [10],-0.1202
same,Half-time,[2]; [11],0.594
same,Span,[2]; [11],1.091
same,Tau,[2]; [11],0.857
same,K,[2]; [12],1.167
same,Y0,[2]; [13],14.59
same,Plateau,[2]; [14],2.835
same,K,[2]; [15],0.372
same,Span,[2]; [15],11.75
same,Tau,[2]; [15],2.688
same,K Value,[3],23.4013
same,Plateau Value,[3],0.3327
same,Y0,[3],0
same,Half-time Value,[3],0.02962
same,Span Value,[3],0.3327
same,Tau Value,[3],0.04273
same,K,[4],0.93
same,LogKow (PubChem),[5],5.16
c1ccc2c(c1)ccc1ccccc12 [Phenanthrene],Smith et al. 2010 K Value,[1],1.66
same,Y0,[2]; [8],398.5
same,Plateau,[2]; [9],48.89
same,K,"[2]; MAF, one phase decay fit",0.9181
same,Span,"[2]; MAF, one phase decay fit",349.6
same,Tau,"[2]; MAF, one phase decay fit",1.089
same,Plateau,[2]; [10],0.3728
same,Y0,[2]; [10],-0.1954
same,Half-time,[2]; [11],0.1645
same,Span,[2]; [11],0.5682
same,Tau,[2]; [11],0.2373
same,K,[2]; [12],4.214
same,Y0,[2]; [13],14.6
same,Plateau,[2]; [14],2.716
same,K,[2]; [15],0.502
same,Span,[2]; [15],11.89
same,Tau,[2]; [15],1.992
same,K Value,[3],29.7306
same,Plateau Value,[3],0.2434
same,Y0,[3],0
same,Half-time Value,[3],0.02331
same,Span Value,[3],0.2434
same,Tau Value,[3],0.03364
same,K,[4],1.32
same,LogKow (PubChem),[5],4.46
same,"ISTD Resp. Ratio, stock","[7]; 0.375 ug/mL DMSO extract, 1 hr exposure block, stock reference samples STOCK_R1-R3, raw GC-MS/MS response ratio to ISTD",7.517 and 6.997 and 7.303
same,ISTD Resp. Ratio (Raw Data for FMD),"[7]; 0.375 ug/mL DMSO extract, 1 hr exposure, media-dissolved fraction, replicates DMSO_FMD_R1-R4, raw GC-MS/MS response ratio to ISTD",0.8475 and 0.7152 and 0.8128 and 0.7589
same,ISTD Resp. Ratio (Raw Data for FUB),"[7]; 0.375 ug/mL DMSO extract, 1 hr exposure, unbound fraction, replicates DMSO_FUB_R1-R4, raw GC-MS/MS response ratio to ISTD",0.02919 and 0.03368 and 0.0397 and 0.002786
same,"ISTD Resp. Ratio, stock","[7]; 0.375 ug/mL DMSO extract, 24 hr exposure block, stock samples STOCK_R1-R3, GC-MS/MS area ratio to ISTD",9.093 and 9.139 and 8.158
same,ISTD Resp. Ratio (Raw Data for FMD),"[7]; 0.375 ug/mL DMSO extract, 24 hr exposure, media-dissolved fraction samples, replicates DMSO_FMD_R2-R4, GC-MS/MS area ratio to ISTD",0.2846 and 0.2622 and 0.2363
same,ISTD Resp. Ratio (Raw Data for FMD),"[7]; 0.375 ug/mL DMSO extract, 24 hr exposure, media-dissolved fraction, replicate DMSO_FMD_R1, raw GC-MS/MS response ratio to ISTD",0.2681
same,ISTD Resp. Ratio (Raw Data for FUB),"[7]; 0.375 ug/mL DMSO extract, 24 hr exposure, unbound fraction samples, replicates DMSO_FUB_R1-R4, GC-MS/MS area ratio to ISTD",0.01396 and 0.01643 and 0.01239 and 0.00394
same,ISTD Resp. Ratio (raw data for FMD),"[7]; 10 ug/mL MAF (MAF_1H_FMD), 1 hour exposure, replicates R1-R3",58.1761 and 43.9105 and 63.6043
same,ISTD Resp. Ratio (raw data for FUB),"[7]; 10 ug/mL MAF (MAF_1H_FUB), 1 hour exposure, replicates R1-R3",0.06932 and 0.09392 and 0.08269
same,"ISTD Resp. Ratio, Raw Data for FMD (media-dissolved fraction)","[7]; 10 ug/mL MAF, 24 hour exposure, samples MAF_24H_FMD_R1-R3 (replicates), raw GC-MS/MS analyte/ISTD response ratio",34.5977 and 34.7241 and 34.153
same,"ISTD Resp. Ratio, Raw Data for FUB (unbound fraction)","[7]; 10 ug/mL MAF, 24 hour exposure, samples MAF_24H_FUB_R1-R3 (replicates), raw GC-MS/MS analyte/ISTD response ratio",0.04313 and 0.02976 and 0.1769
same,ISTD Resp. Ratio (Raw Data for FMD),"[7]; 10 ug/mL micro-O-Rings, 1 hour exposure, media-dissolved fraction samples, replicates ORINGS_1H_FMD_R1-R3, GC-MS/MS area ratio to ISTD",0.01581 and 0.07741 and 0.0739
same,ISTD Resp. Ratio (Raw Data for FUB),"[7]; 10 ug/mL micro-O-Rings, 1 hour exposure, unbound fraction samples, replicates ORINGS_1H_FUB_R1-R3, GC-MS/MS area ratio to ISTD",0.004514 and 0.0003336 and 0.01406
same,ISTD Resp. Ratio (Raw Data for FMD),"[7]; 10 ug/mL micro-O-Rings, 24 hour exposure, media-dissolved fraction samples, replicate ORINGS_24H_FMD_R1, GC-MS/MS area ratio to ISTD",0.01817
same,ISTD Resp. Ratio (raw data for FMD),"[7]; O-rings (ORINGS_24H_FMD), 24 hour exposure, media without cells, GC-MS/MS analyte/ISTD response ratio, replicates R2-R3",0.001128 and 0.05584
same,ISTD Resp. Ratio (raw data for FUB),"[7]; O-rings (ORINGS_24H_FUB), 24 hour exposure, media without cells, GC-MS/MS analyte/ISTD response ratio, replicates R1-R3",0.001509 and 0.006155 and 0.006123
same,"ISTD Resp. Ratio, stock","[7]; STOCK_10_R1-R3 (replicates) of the block 10 ug/mL MAF, 24 hr exposure, raw GC-MS/MS analyte/ISTD response ratio",241.043 and 253.185 and 249.851
same,ISTD Resp. Ratio (STOCK_10),"[7]; STOCK_10 reference samples of the 10 ug/mL MAF section, replicates R1-R3",251.693 and 253.185 and 259.309
same,ISTD Resp. Ratio (STOCK_10),"[7]; STOCK_10 reference samples of the O-rings section, replicates R1-R3",105.268 and 100.389 and 100.167
